Assay results taken from paper PMC8262356, “SLC26A6-selective inhibitor identified in a small-molecule screen blocks fluid absorption in small intestine” (JCI Insight, 2021).

Target: T1, SLC26A9 (Homo sapiens, UniProt Q7LBE3)
T1 construct: expressed in transfected cells; host or cells: FRT cells coexpressing YFP
T1 sequence (Q7LBE3 1-791): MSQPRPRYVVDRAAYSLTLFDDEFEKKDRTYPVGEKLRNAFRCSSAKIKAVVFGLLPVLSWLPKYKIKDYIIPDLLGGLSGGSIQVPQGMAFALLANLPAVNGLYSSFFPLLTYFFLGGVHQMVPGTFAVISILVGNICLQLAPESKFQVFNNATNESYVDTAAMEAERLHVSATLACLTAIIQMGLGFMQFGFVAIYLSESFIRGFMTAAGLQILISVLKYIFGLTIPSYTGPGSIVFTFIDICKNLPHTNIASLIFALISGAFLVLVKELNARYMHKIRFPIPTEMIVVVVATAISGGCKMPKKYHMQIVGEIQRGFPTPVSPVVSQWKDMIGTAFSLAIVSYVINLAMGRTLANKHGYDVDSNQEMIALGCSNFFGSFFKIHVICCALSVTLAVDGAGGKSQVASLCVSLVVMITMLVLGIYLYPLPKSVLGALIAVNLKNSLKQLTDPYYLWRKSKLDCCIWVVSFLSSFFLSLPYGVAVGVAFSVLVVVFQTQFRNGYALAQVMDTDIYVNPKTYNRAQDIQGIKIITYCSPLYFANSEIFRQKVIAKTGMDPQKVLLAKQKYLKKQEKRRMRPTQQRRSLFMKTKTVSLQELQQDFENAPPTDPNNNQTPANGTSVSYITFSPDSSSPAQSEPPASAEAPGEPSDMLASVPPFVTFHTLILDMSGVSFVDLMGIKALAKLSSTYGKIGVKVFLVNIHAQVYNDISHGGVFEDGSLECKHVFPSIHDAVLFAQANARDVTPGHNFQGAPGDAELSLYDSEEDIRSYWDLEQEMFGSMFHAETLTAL
Assay: Selectivity: Cl-/I- exchange in FRT cells coexpressing YFP and SLC26A9
Format: cell-based
Conditions: 25 μM
Experimental: PAT1inh-B01 selectivity was studied by testing its effects on related SLC26A family anion transporters and the Cl^– channel TMEM16A. These measurements used a similar Cl^–/I^– exchange protocol, but FRT cells separately expressed each of the SLC26A family members or TMEM16A. […] PAT1inh-B01 selectivity was also tested by short-circuit current (Isc) in well-differentiated human bronchial epithelial (HBE) cells, which have a complex ion transport mechanism that includes cystic fibrosis transmembrane conductance regulator (CFTR), epithelial Na^+ channel (ENaC), and Ca^+2-activated chloride channels (CaCCs) ([13]). […] Potential PAT1inh-B01 cytotoxicity was studied in FRT cells.
Figure 3 PAT1inh-B01 selectivity and cytotoxicity. […] Cl^–/I^– exchange or I^– influx measured in FRT cells coexpressing YFP and SLC26A isoforms or TMEM16A, with data shown for 25 μM PAT1inh-B01, DMSO vehicle control, and 500 μM niflumic acid (positive control for SLC26A transporters) or 10 μM TMinh-23 (positive control for TMEM16A). […] (C) (left) Short-circuit current (Isc) in well-differentiated HBE cells measured in the absence (top) and presence (bottom) of 25 μM PAT1inh-B01. […]
YFP-based cellular assays of slc26a3, slc26a4, SLC26A9, and TMEM16A function were performed as described previously ([7]). […] The activities of ENaC, CFTR, and CaCC were determined using well-differentiated HBE cells as described previously ([13]). […]

inhibition of SLC26A9: did not significantly inhibit
Structure (SMILES): Cc1c(Br)c(C(F)(F)F)nn1CC(=O)N1CCc2nc3cc(-c4ccccc4)[nH]n3c(=O)c2C1 [PAT1inh-B01]
